# Measurements from patent publication US7803830B2, “3-amino-1-arylpropyl indoles and AZA-substituted indoles and uses thereof” (Roche Palo Alto LLC, priority 2005, dated 2010).
# Counter-ions that a name gives are not always drawn.
row,melting point,Structure (SMILES)
1,> 300 °C,CNCCC(c1ccc2cc[nH]c2c1)c1ccccn1 (stereo not shown) (as salt: HCl) (hydrate or solvate) [compound 21]
2,62 to 63 °C,"CNCCC(c1cccc(Cl)c1)c1ccc2cc[nH]c2c1 (stereo not shown) (as salt: HCl) [compound 36, [3-(3-Chloro-phenyl)-3-(1H-indol-6-yl)-propyl]-methyl-amine]"
3,130.6 to 133.1 °C,"CNCCC(c1ccccc1)c1cccc2[nH]ncc12 (stereo not shown) (as salt: HCl) [compound 49, [3-(1H-Indazol-4-yl)-3-phenyl-propyl]-methyl-amine]"
4,61.9 to 65.7 °C,"CNCC[C@H](c1ccccc1)c1cccc2cn[nH]c12 (as salt: TFA) [compound 55, [(R)-3-(1H-Indazol-7-yl)-3-phenyl-propyl]-methyl-amine]"
5,62 to 68.1 °C,"CNCC[C@@H](c1ccccc1)c1cccc2cn[nH]c12 (as salt: TFA) [compound 56, [(S)-3-(1H-Indazol-7-yl)-3-phenyl-propyl]-methyl-amine]"
6,64.5 to 66 °C,"CNCCC(c1ccccc1)c1ccc2[nH]nc(C)c2c1 (stereo not shown) (as salt: TFA) [compound 58, Methyl-[3-(3-methyl-1H-indazol-5-yl)-3-phenyl-propyl]-amine]"
7,142 to 152 °C,"CNCCC(c1ccc2[nH]ccc2c1)c1ccc2[nH]ccc2c1 [compound 111, [3,3-Bis-(1H-indol-5-yl)-propyl]-methyl-amine]"
8,60.9 to 62.9 °C,"NCCC(c1ccc2ncccc2c1)c1ccc2[nH]ccc2c1 (stereo not shown) [compound 120, 3-(1H-Indol-5-yl)-3-quinolin-6-yl-propylamine]"
9,60.3 to 62 °C,"CNCCC(c1ccc2[nH]ccc2c1)c1ccc2nccnc2c1 (stereo not shown) [compound 123, [3-(1H-lndol-5-yl)-3-quinoxalin-6-yl-propyl]-methyl-amine]"
10,56 to 58 °C,"CNCCC(c1cnc2ccccc2c1)c1ccc2[nH]ccc2c1 (stereo not shown) [compound 137, [3-(1H-Indol-5-yl)-3-quinolin-3-yl-propyl]-methyl-amine]"
